Measured values taken from US20090258824A1, “Amyloid beta receptor and uses thereof” (priority 2005, published 2009).

Test system: cultured cortical neurons
Test: Calcium imaging (Fluo-4) in cultured cortical neurons
Assay type: cell-based, rat (Sprague Dawley)
Conditions: antagonist co-applied with Aβ*56
Experimental: Cultured neurons. Cultures of cortical neurons from P1 Sprague Dawley rat pups were prepared according to previously published protocols (Dubinsky, J Neurosci 13, 623-631 (1993)). Dissections of cortical mantels excluded meninges, hippocampus, septal regions, and basal ganglia. […]
Size-exclusion chromatography (SEC). […] Fractions of 500 μl of eluate in 50 mM Ammonium Acetate, pH 8.5, were diluted 1:100 or 1:750 in neurophysiology experiments, or were concentrated using a vacuum system (VacuFuge™, Brinkmann-Eppendorf) and analyzed by silver staining.
Calcium imaging. […] Calcium indicator dye fluorescence was monitored with 488 nanometer (nm) excitation, a 500 nm long-pass barrier filter and confocal microscopy (Odyssey scanner, Noran, Middleton, Wis.). […] To quantify neuronal Ca^2+ responses, Ca^2+ fluorescence was measured from single neurons or clusters of neurons. Baseline fluorescence was normalized to one and the area between the curve and the baseline calculated using Origin software analysis routines (OriginLab Corporation, Northampton, Mass.).

SMILES | effect on the Aβ*56-induced increase in Ca2+ signal
O=C(O)C1CN(CCCP(=O)(O)O)CCN1 (racemic) [CPP, (+/−)-3-(2-carboxypiperazin-4-yl)-propyl-1-phosphonic acid] | completely abolished
CCC(N)(C(=O)O)c1ccc(C(=O)O)cc1 (racemic) [E4CPG, (RS)-α-Ethyl-4-carboxyphenylglycine] | failed to block
